Measurements as given in ChEMBL document CHEMBL1149227, “The discovery of structurally novel CCR1 antagonists derived from a hydroxyethylene peptide isostere template” (Bioorg Med Chem Lett, 2004).
pIC50: −log10 of the molar value.

Key:
[1] = biological target: T1, C-C chemokine receptor type 1 (Homo sapiens, UniProt P32246); assay: Inhibition of CCL3 binding to C-C chemokine receptor type 1
T1 sequence (P32246 whole entry): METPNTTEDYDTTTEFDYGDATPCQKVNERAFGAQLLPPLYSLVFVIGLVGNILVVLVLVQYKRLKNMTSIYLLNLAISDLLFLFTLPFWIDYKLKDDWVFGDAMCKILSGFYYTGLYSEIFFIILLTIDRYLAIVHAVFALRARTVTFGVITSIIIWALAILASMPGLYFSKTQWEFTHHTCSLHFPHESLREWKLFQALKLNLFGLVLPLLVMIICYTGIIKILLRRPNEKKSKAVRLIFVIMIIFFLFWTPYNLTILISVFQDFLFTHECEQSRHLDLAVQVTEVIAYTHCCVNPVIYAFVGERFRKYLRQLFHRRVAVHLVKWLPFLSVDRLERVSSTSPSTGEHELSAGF

THP-1 [2] = assay: (§1) Inhibition of CCL3 induced chemotaxis in THP-1 cells; inactive at a concentration of 25 uM; format: functional, cell-based; conditions: Homo sapiens
THP-1 [3] = assay: Inhibition of CCL3 induced chemotaxis in THP-1 cells; format: functional, cell-based; conditions: Homo sapiens
THP-1 [4] = assay: as §1; format: functional; conditions: Homo sapiens
Renin = biological target: T2, Renin (Rattus norvegicus, UniProt P08424); assay: Inhibitory activity of compound against renin was determined
T2 sequence (P08424 whole entry): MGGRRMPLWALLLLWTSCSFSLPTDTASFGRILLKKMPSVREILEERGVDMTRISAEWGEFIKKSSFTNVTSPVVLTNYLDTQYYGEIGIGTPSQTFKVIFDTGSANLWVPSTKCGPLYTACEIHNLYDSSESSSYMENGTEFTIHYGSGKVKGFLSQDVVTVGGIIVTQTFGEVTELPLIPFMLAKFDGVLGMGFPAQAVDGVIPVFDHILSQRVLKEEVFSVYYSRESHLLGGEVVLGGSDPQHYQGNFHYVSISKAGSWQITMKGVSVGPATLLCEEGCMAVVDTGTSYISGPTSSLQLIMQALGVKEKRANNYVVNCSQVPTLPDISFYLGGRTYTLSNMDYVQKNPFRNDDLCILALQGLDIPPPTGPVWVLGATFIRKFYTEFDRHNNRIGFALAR

THP-1 [5] = assay: Inhibition of CCL5 induced chemotaxis in THP-1 cells; format: functional, cell-based; conditions: Homo sapiens

Row | Structure (SMILES) | pIC50 [1] | pIC50 (THP-1 [2]) | other results
1 | CNC(=O)[C@H](CC(C)C)C[C@H](O)[C@H](Cc1ccccc1)NC(=O)c1cnc2ccccc2c1 | 6.19 |  | 
2 | CC[C@H](C)[C@H](NC(=O)c1cnc2ccccc2c1)[C@@H](O)C[C@@H](CC(C)C)C(=O)NC |  | > 4.30 | 
3 | CNC(=O)[C@@H](CC(C)C)C[C@H](O)[C@H](CC1CCCCC1)NC(=O)c1cnc2ccccc2c1 | 4.52 |  | pIC50 (THP-1 [3]): 4.92
4 | CNC(=O)[C@H](CC(C)C)C[C@H](O)[C@@H](CC1CCCCC1)NC(=O)c1cnc2ccccc2c1 |  |  | inhibition at 25 µM (THP-1 [4]): < 50%
5 | C=C(Cl)C[C@H](C[C@H](O)[C@H](CC1CCCCC1)NC(=O)c1cc2cc(Cl)ccc2[nH]1)C(=O)NC | < 4.49 |  | pIC50 (Renin): 7.39; pIC50 (THP-1 [5]): < 4.60
6 | CC(C)C[C@H](C[C@H](O)[C@H](CC1CCCCC1)NC(=O)c1cnc2ccccc2c1)C(N)=O | 5.10 |  | pIC50 (THP-1 [3]): 5.20
7 | CNC(=O)[C@@H](CC(C)C)C[C@@H](O)[C@H](CC1CCCCC1)NC(=O)c1cnc2ccccc2c1 |  |  | pIC50 (THP-1 [3]): 5.11
8 | CNC(=O)[C@@H](CC(C)C)C[C@H](O)[C@@H](CC1CCCCC1)NC(=O)c1cnc2ccccc2c1 |  | > 4.30 | 
9 | CC(C)C[C@H](C[C@H](O)[C@H](CC1CCCCC1)NC(=O)c1cnc2ccccc2c1)C(=O)N(C)C |  | > 4.30 | 
10 | CNC(=O)[C@H](CC(C)C)C[C@H](O)[C@H](CC(C)C)NC(=O)c1cnc2ccccc2c1 | 4.93 |  | 
11 | CNC(=O)[C@@H](CC(C)C)C[C@@H](O)[C@@H](CC1CCCCC1)NC(=O)c1cnc2ccccc2c1 | 4.82 | > 4.30 | 
12 | CNC(=O)[C@H](CC(C)C)C[C@H](O)[C@H](CC1CCCCC1)NC(=O)c1cnc2ccccc2c1 | 5.64 |  | pIC50 (Renin): < 5.00; pIC50 (THP-1 [5]): 6.20
13 | CNC(=O)[C@H](CC(C)C)C[C@@H](O)[C@@H](CC1CCCCC1)NC(=O)c1cnc2ccccc2c1 |  | > 4.30 | 
14 | CNC(=O)[C@H](CC(C)C)C[C@@H](O)[C@H](CC1CCCCC1)NC(=O)c1cnc2ccccc2c1 |  | < 4.60 | 
15 | CNC(=O)[C@H](CC(C)C)C[C@H](O)[C@H](CC1CCCCC1)NS(=O)(=O)c1cnc2ccccc2c1 |  | > 4.30 | 
